# Experimental data: patent US20060069132A1, “Azolecarboxamide herbicides” (priority 2004, published 2006)
# How the values were obtained:
# [1] = test system: small flower umbrella sedge; assay: Test B flooded paddy test; assay type: in vivo, Cyperus difformis; details: 1000 g ai/ha, scale 0 to 100 (0 no effect, 100 complete control)
# How it was run: (§1)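 Visual control ratings, 0–100 versus untreated controls, taken after 13 to 15 days in the greenhouse. Blackgrass received a postemergence spray at the 1- to 4-leaf stage (2–18 cm); ducksalad, umbrella sedge and barnyardgrass were flooded-paddy treated at 2 leaves.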
# wheat = assay: Test B postemergence herbicide test; assay type: in vivo, Triticum aestivum; parameters: key to Wheat plant response rating: 0 = no effect, 100 = complete control; details: postemergence
# How it was run: (§2)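 Visual ratings, 0 (no effect) to 100 (complete control), made versus controls after 13–15 d greenhouse. Paddy plants treated at 2-leaf stage; postemergence plants at 1- to 4-leaf stage, 2–18 cm tall.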
# corn = assay: Test B pre-/postemergence herbicide test; assay type: in vivo, Zea mays
# How it was run: (§3)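 Visual rating, 0 (no effect) to 100 (complete control), versus untreated controls after 13–15 d in greenhouse. Pre- and postemergence applications (postemergence plants 2–18 cm, 1–4 leaves); flooded paddy arm at 2-leaf stage. Compounds in non-phytotoxic solvent plus surfactant.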
# barnyardgrass [2] = assay: Test B pre-/postemergence herbicide test; assay type: in vivo, Echinochloa crus-galli
# How it was run: (§4)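 Response was scored visually 13 to 15 days after treatment against untreated greenhouse controls, 0 meaning no effect and 100 complete control. Formulations (solvent mixture plus surfactant) went onto soil after planting, onto foliage of 1- to 4-leaf plants, and onto 2-leaf plants in a flooded paddy set including rice and barnyardgrass.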
# barnyardgrass [3] = assay: Test B flooded paddy test; assay type: in vivo, Echinochloa crus-galli; details: 1000 g ai/ha, scale 0 to 100 (0 no effect, 100 complete control)
# How it was run: as §1
# cocklebur = assay: Test B pre-/postemergence herbicide test; assay type: in vivo, Xanthium strumarium
# How it was run: as §4
# giant foxtail = assay: Test B pre-/postemergence herbicide test; assay type: in vivo, Setaria faberi
# How it was run: as §3
# morningglory = assay: Test B pre-/postemergence herbicide test; assay type: in vivo, Ipomoea coccinea
# How it was run: as §4
# lambsquarters = assay: Test B pre-/postemergence herbicide test; assay type: in vivo, Chenopodium album
# How it was run: as §3
# wild oat = assay: Test B postemergence herbicide test; assay type: in vivo, Avena fatua
# How it was run: as §2
# Surinam grass = assay: Test B pre-/postemergence herbicide test; assay type: in vivo, Urochloa decumbens
# How it was run: as §3
# barnyardgrass [4] = assay: Test C flooded paddy test; assay type: in vivo, Echinochloa crus-galli
# How it was run: (§5)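 Injury scored visually against controls on a 0 (no effect) to 100 (complete control) scale, 12 to 14 days after treatment in greenhouse. Flooded paddy plants treated at 2-leaf stage; postemergence plants at 1- to 4-leaf stage, 2 to 18 cm tall.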
# velvetleaf = assay: Test B pre-/postemergence herbicide test; assay type: in vivo, Abutilon theophrasti
# How it was run: as §3
# pigweed = assay: Test B pre-/postemergence herbicide test; assay type: in vivo, Amaranthus retroflexus
# How it was run: as §3
# rice [5] = assay: Test C flooded paddy test; assay type: in vivo, Oryza sativa
# How it was run: as §5
# rice [6] = assay: Test B flooded paddy test; assay type: in vivo, Oryza sativa; details: 1000 g ai/ha, scale 0 to 100 (0 no effect, 100 complete control)
# How it was run: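 Read-out: visual comparison with controls, scored 0 to 100, where 100 means complete control and 0 no effect. Formulated chemicals were applied postemergence to plants 2–18 cm tall (1- to 4-leaf), or to flooded-paddy plants at the 2-leaf stage, then held 13 to 15 days under glass.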
# ducksalad [7] = assay: Test B flooded paddy test; assay type: in vivo, Heteranthera limosa; details: 1000 g ai/ha, scale 0 to 100 (0 no effect, 100 complete control)
# How it was run: as §1
# large crabgrass = assay: Test B pre-/postemergence herbicide test; assay type: in vivo, Digitaria sanguinalis
# How it was run: as §3
# ducksalad [8] = assay: Test C flooded paddy test; assay type: in vivo, Heteranthera limosa
# blackgrass = assay: Test B postemergence herbicide test; assay type: in vivo, Alopecurus myosuroides
# How it was run: as §1
# rice [9] = assay: Test B pre-/postemergence herbicide test; assay type: in vivo, Oryza sativa; details: preemergence
# How it was run: as §3
# [10] = test system: smallflower umbrella sedge; assay: Test C flooded paddy test; assay type: in vivo, Cyperus difformis
# [11] = 500 g ai/ha; visual rating 0-100, 0 no effect, 100 complete control; preemergence
# [12] = postemergence, 125 g ai/ha; visual rating, scale 0 (no effect) to 100 (complete control)
# [13] = postemergence, 500 g ai/ha; visual rating, scale 0 (no effect) to 100 (complete control)
# [14] = preemergence, 125 g ai/ha; 0 to 100 scale, 0 is no effect, 100 is complete control
# [15] = 62 g ai/ha, scale 0 to 100 (0 no effect, 100 complete control)
# [16] = 250 g ai/ha, scale of 0 to 100, 0 is no effect, 100 is complete control
# [17] = 500 g ai/ha, visual rating after 12 to 14 days, scale 0 to 100 (0 no effect, 100 complete control)
# [18] = 125 g ai/ha, scale 0 to 100 (0 no effect, 100 complete control)
# [19] = 125 g ai/ha; 0 = no effect, 100 = complete control; preemergence
# [20] = 125 g ai/ha; visual rating, scale 0 (no effect) to 100 (complete control); postemergence
# [21] = 500 g ai/ha; visual rating, 0 = no effect, 100 = complete control; preemergence
# [22] = postemergence, 500 g ai/ha; scale 0 to 100, 0 is no effect, 100 is complete control
smiles,measurement,setting,value
CCOC(=O)c1cc(N(C(C)=O)C(=O)c2cc(C(C)(C)C)nn2CC)ccc1C [Compound 141],"Sedge, Umbrella plant response rating","[1]; visual rating, 13 to 15 days",90
same,Wheat plant response rating,"wheat; 500 g ai/ha, visual rating, scale 0 (no effect) to 100 (complete control)",20
same,"Plant response rating, Corn",corn; [11],0
same,Corn plant response rating,corn; [12],0
same,Corn plant response rating,corn; [13],10
same,"Plant response rating, Corn",corn; [14],0
same,"Plant response rating, Barnyardgrass",barnyardgrass [2]; [11],0
same,Barnyardgrass plant response rating,barnyardgrass [2]; [12],0
same,Barnyardgrass plant response rating,barnyardgrass [2]; [13],10
same,"Plant response rating, Barnyardgrass",barnyardgrass [2]; [14],0
same,Barnyardgrass plant response rating,"barnyardgrass [3]; visual rating, 13 to 15 days",10
same,"Plant response rating, Cocklebur",cocklebur; [11],10
same,Cocklebur plant response rating,cocklebur; [12],0
same,Cocklebur plant response rating,cocklebur; [13],20
same,"Plant response rating, Cocklebur",cocklebur; [14],0
same,"Plant response rating, Foxtail, Giant",giant foxtail; [11],20
same,"Foxtail, Giant plant response rating",giant foxtail; [12],20
same,"Foxtail, Giant plant response rating",giant foxtail; [13],20
same,"Plant response rating, Foxtail, Giant",giant foxtail; [14],10
same,"Plant response rating, Morningglory",morningglory; [11],30
same,Morningglory plant response rating,morningglory; [12],20
same,Morningglory plant response rating,morningglory; [13],30
same,"Plant response rating, Morningglory",morningglory; [14],20
same,"Plant response rating, Lambsquarters",lambsquarters; [11],0
same,Lambsquarters plant response rating,lambsquarters; [12],60
same,Lambsquarters plant response rating,lambsquarters; [13],90
same,"Plant response rating, Lambsquarters",lambsquarters; [14],0
same,"Oat, Wild plant response rating",wild oat; [12],10
same,"Oat, Wild plant response rating",wild oat; [13],20
same,"Plant response rating, Surinam Grass",Surinam grass; [11],10
same,Surinam Grass plant response rating,Surinam grass; [12],10
same,Surinam Grass plant response rating,Surinam grass; [13],20
same,"Plant response rating, Surinam Grass",Surinam grass; [14],0
same,Barnyardgrass plant response rating,barnyardgrass [4]; [15],0
same,Barnyardgrass plant response rating,"barnyardgrass [4]; 125 g ai/ha, scale of 0 to 100, 0 is no effect, 100 is complete control",0
same,Barnyardgrass plant response rating,barnyardgrass [4]; [16],0
same,"Plant response rating, Barnyardgrass",barnyardgrass [4]; [17],10
same,"Plant response rating, Velvetleaf",velvetleaf; [11],20
same,Velvetleaf plant response rating,velvetleaf; [12],20
same,Velvetleaf plant response rating,velvetleaf; [13],80
same,"Plant response rating, Velvetleaf",velvetleaf; [14],0
same,"Plant response rating, Pigweed",pigweed; [11],30
same,Pigweed plant response rating,pigweed; [12],30
same,Pigweed plant response rating,pigweed; [13],80
same,"Plant response rating, Pigweed",pigweed; [14],0
same,Rice plant response rating,rice [5]; [15],0
same,Rice plant response rating,rice [5]; [18],0
same,Rice plant response rating,rice [5]; [16],0
same,"Plant response rating, Rice",rice [5]; [17],0
same,Rice plant response rating,"rice [6]; visual rating, 13 to 15 days",0
same,Ducksalad plant response rating,"ducksalad [7]; visual rating, 13 to 15 days",80
same,"Plant response rating, Crabgrass, Large",large crabgrass; [11],20
same,"Crabgrass, Large plant response rating",large crabgrass; [12],10
same,"Crabgrass, Large plant response rating",large crabgrass; [13],30
same,"Plant response rating, Crabgrass, Large",large crabgrass; [14],10
same,Ducksalad plant response rating,ducksalad [8]; [15],0
same,Ducksalad plant response rating,ducksalad [8]; [18],0
same,Ducksalad plant response rating,ducksalad [8]; [16],0
same,"Plant response rating, Ducksalad",ducksalad [8]; [17],0
same,Blackgrass plant response rating,blackgrass; [12],20
same,Blackgrass plant response rating,blackgrass; [13],20
same,"Plant response rating, Rice","rice [9]; 500 g ai/ha, visual rating 0-100, 0 no effect, 100 complete control",0
same,"Plant response rating, Rice","rice [9]; 125 g ai/ha, 0 to 100 scale, 0 is no effect, 100 is complete control",0
same,"Sedge, Umbrella plant response rating",[10]; [15],0
same,"Sedge, Umbrella plant response rating",[10]; [18],0
same,"Sedge, Umbrella plant response rating",[10]; [16],30
same,"Plant response rating, Sedge, Umbrella",[10]; [17],45
CCn1nc(C(C)(C)C)cc1C(=O)Nc1cc(OC)ccc1OC [Compound 297],"Sedge, Umbrella plant response rating",[1],80
same,Wheat plant response rating,"wheat; 125 g ai/ha, visual rating, scale 0 (no effect) to 100 (complete control)",0
same,Wheat plant response rating,"wheat; 500 g ai/ha, scale 0 to 100, 0 is no effect, 100 is complete control",10
same,Corn plant response rating (0 to 100 scale),corn; [19],0
same,Corn plant response rating,corn; [20],10
same,"Plant response rating, Corn",corn; [21],0
same,Corn plant response rating,corn; [22],100
same,Barnyardgrass plant response rating (0 to 100 scale),barnyardgrass [2]; [19],0
same,Barnyardgrass plant response rating,barnyardgrass [2]; [20],10
same,"Plant response rating, Barnyardgrass",barnyardgrass [2]; [21],20
same,Barnyardgrass plant response rating,barnyardgrass [2]; [22],20
same,Barnyardgrass plant response rating,barnyardgrass [3],30
same,Cocklebur plant response rating (0 to 100 scale),cocklebur; [19],0
same,Cocklebur plant response rating,cocklebur; [20],0
same,"Plant response rating, Cocklebur",cocklebur; [21],0
same,Cocklebur plant response rating,cocklebur; [22],0
same,"Foxtail, Giant plant response rating (0 to 100 scale)",giant foxtail; [19],10
same,"Foxtail, Giant plant response rating",giant foxtail; [20],20
same,"Plant response rating, Foxtail, Giant",giant foxtail; [21],60
same,"Foxtail, Giant plant response rating",giant foxtail; [22],30
same,Morningglory plant response rating (0 to 100 scale),morningglory; [19],10
same,Morningglory plant response rating,morningglory; [20],0
same,"Plant response rating, Morningglory",morningglory; [21],10
same,Morningglory plant response rating,morningglory; [22],30
same,Lambsquarters plant response rating (0 to 100 scale),lambsquarters; [19],0
same,Lambsquarters plant response rating,lambsquarters; [20],10
same,"Plant response rating, Lambsquarters",lambsquarters; [21],80
same,Lambsquarters plant response rating,lambsquarters; [22],20
same,"Oat, Wild plant response rating",wild oat; [20],0
same,"Oat, Wild plant response rating",wild oat; [22],20
same,Surinam Grass plant response rating (0 to 100 scale),Surinam grass; [19],10
same,Surinam Grass plant response rating,Surinam grass; [20],20
same,"Plant response rating, Surinam Grass",Surinam grass; [21],20
same,Surinam Grass plant response rating,Surinam grass; [22],30
same,Velvetleaf plant response rating,velvetleaf; [20],0
same,"Plant response rating, Velvetleaf",velvetleaf; [21],10
same,Velvetleaf plant response rating,velvetleaf; [22],10
same,Pigweed plant response rating (0 to 100 scale),pigweed; [19],0
same,Pigweed plant response rating,pigweed; [20],0
same,"Plant response rating, Pigweed",pigweed; [21],40
same,Pigweed plant response rating,pigweed; [22],40
same,Rice plant response rating,rice [6],20
same,Ducksalad plant response rating,ducksalad [7],30
same,"Crabgrass, Large plant response rating (0 to 100 scale)",large crabgrass; [19],20
same,"Crabgrass, Large plant response rating",large crabgrass; [20],20
same,"Plant response rating, Crabgrass, Large",large crabgrass; [21],80
same,"Crabgrass, Large plant response rating",large crabgrass; [22],30
same,Blackgrass plant response rating,blackgrass; [20],10
same,Blackgrass plant response rating,blackgrass; [22],20
same,Rice plant response rating (0 to 100 scale),"rice [9]; 125 g ai/ha, 0 = no effect, 100 = complete control",0
same,"Plant response rating, Rice","rice [9]; 500 g ai/ha, visual rating, 0 = no effect, 100 = complete control",10
